{"source": "patent US11198741B2", "about": "“Medicines for topic use based on sulfated hyaluronic acid as activating or inhibiting agent of the cytokine activity” (Fidia Farmaceutici S.p.A., priority 2009, dated 2021)", "molecules": {"B1": {"name": "PLASMIN: enzyme of the group of hydrolases degrading fibrin; control treatment of acknowledged fibrinolytic activity (protein, UniProt P00747 20-580; P00747 581-810, looked up)", "Plasmin heavy chain A": "EPLDDYVNTQGASLFSVTKKQLGAGSIEECAAKCEEDEEFTCRAFQYHSKEQQCVIMAENRKSSIIIRMRDVVLFEKKVYLSECKTGNGKNYRGTMSKTKNGITCQKWSSTSPHRPRFSPATHPSEGLEENYCRNPDNDPQGPWCYTTDPEKRYDYCDILECEEECMHCSGENYDGKISKTMSGLECQAWDSQSPHAHGYIPSKFPNKNLKKNYCRNPDRELRPWCFTTDPNKRWELCDIPRCTTPPPSSGPTYQCLKGTGENYRGNVAVTVSGHTCQHWSAQTPHTHNRTPENFPCKNLDENYCRNPDGKRAPWCHTTNSQVRWEYCKIPSCDSSPVSTEQLAPTAPPELTPVVQDCYHGDGQSYRGTSSTTTTGKKCQSWSSMTPHRHQKTPENYPNAGLTMNYCRNPDADKGPWCFTTDPSVRWEYCNLKKCSGTEASVVAPPPVVLLPDVETPSEEDCMFGNGKGYRGKRATTVTGTPCQDWAAQEPHRHSIFTPETNPRAGLEKNYCRNPDGDVGGPWCYTTNPRKLYDYCDVPQCAAPSFDCGKPQVEPKKCPGR", "Plasmin light chain B": "VVGGCVAHPHSWPWQVSLRTRFGMHFCGGTLISPEWVLTAAHCLEKSPRPSSYKVILGAHQEVNLEPHVQEIEVSRLFLEPTRKDIALLKLSSPAVITDKVIPACLPSPNYVVADRTECFITGWGETQGTFGAGLLKEAQLPVIENKVCNRYEFLNGRVQSTELCAGHLAGGTDSCQGDSGGPLVCFEKDKYILQGVTSWGLGCARPNKPGVYVRVSRFVTWIEGVMRNN", "modifications": "Plasmin"}}, "key": {"[1]": {"system": "Vesicular stomatitis virus: VSV", "assay_type": "cell-based"}, "TNF receptor": {"system": "TNF receptor", "assay": "Inhibition of the binding of 125I-TNF to its receptor in U937 cells (Radioligand Binding)", "set-up": "species or system human", "settings": "125I-TNF 0.028 nM, sample 1 mg/ml, 4° C. 3 hours, medium and low MW", "excerpt": "These experiments were effected to evaluate the effectiveness of the samples tested (prepared according to Examples 1-4) on the capacity of inhibiting the binding of TNF to its receptor expressed by cells of the I.S. normally used in vitro for this type of experiment, carried out with iodinated cytokine components for an evaluation in Radioligand Binding assays. The experimental procedure was effected as described in Baglioni C. et al., J Biol Chem, 1985, 260:13395-13397. In short, the line of human histiocytes of the lymphoma U937 was used, with characteristics of monocytes sensitive to the cytotoxic activity of TNF, expressing its relative receptor. […] At the end of the incubation, the cells were centrifuged with dibutylphthalate/dinonylphthalate 2/1 and the pellet obtained was counted in a γ-counter."}, "IL-12 [2]": {"system": "IL-12", "assay": "Protein synthesis of IL-12 in human PBMC (SearchLight array)", "settings": "not stimulated or stimulated with LPS or PHA (10 μg/ml), 24 hours, FIG. 8: 1 mg/ml, vs HA", "experimental": "(§2) For these experimentations, mononucleate cells of human peripheral blood (PBMC) were adopted, deriving from various donors for evaluating the effect of HAS on the production of the cytokines listed above, using:\n(§3) The separation of the PBMC (Bøyum A., Scand J Clin Lab Invest 21 Suppl, 1968, 97:77-89) was effected using the product Ficoll-Paque PLUS (GE Healthcare) and following the protocol indicated by the supplier. At day zero 100,000 cells were plated per well (using plates with 96 wells) in 200 μl of medium RPMI 1640, to which 10% of fetal bovine serum, HEPES 10 mM, Glutamine 2 mM, 1% Penicillin-Streptomycin 100 U/ml, had been added. […] The cells were treated separately with the three compounds at a concentration of 0.1 mg/ml or 1 mg/ml. After 24 hours of incubation at 37° C. (5% CO2), 100 μl of supernatant were taken from each well in order to analyze the production of IL-2, IL-7, IL-10 and IL-12.\n(§4) The quantification of the inflammation mediators was effected by means of the SearchLight® technology, using a Custom Human 9-flex Array plate following the protocol indicated by the supplier in the technical card."}, "IL-7": {"system": "IL-7", "assay": "Protein synthesis of IL-7 in human PBMC (SearchLight array)", "settings": "not stimulated or stimulated with LPS or PHA (10 μg/ml), 24 hours, FIG. 7: 1 mg/ml, vs HA", "experimental": "as §2, §3, §4"}, "[3]": {"system": "Herpes Simplex Virus-2 (HSV-2: G, 196 and Lyons strain)", "assay": "Inhibition of viral cytopathogenicity in E6SM fibroblast cells, HSV-2", "assay_type": "cell-based", "settings": "2nd day of incubation, numbers only in FIG. 10"}, "IL-12 [4]": {"system": "IL-12", "assay": "Gene expression of IL-12 in human synoviocytes (PCR Real Time)", "assay_type": "cell-based", "settings": "3 days of treatment, FIG. 2: 0.5 mg/ml, vs control treated with non-sulfated HA 200 KD", "procedure": "(§1) Human synoviocytes previously expanded in vitro and maintained in a culture at 37° C. with a medium of DMEM containing 10% of FCS, were seeded at a concentration of 20,000 cells per well (synoviocytes are cells capable of producing various types of cytokines, and are therefore normally used for this type of experimental test). […] After 3 days of treatment, the PCR Real Time was effected to evaluate the gene expression of IL-10 and IL-12: the cell RNA was extracted using the “Trizol” method, following the indications of the supplier (TRIZOL reagent, LIFE Technologies, GIBCO BRL). In short, the cells were lysed by the addition of 1.0 ml of Trizol and the total RNA was quantified by measuring its absorbance at 260 nm. The appropriate primers were selected for each gene to be amplified, using the software Primer3 (Roche Molecular Diagnostics, Pleasanton, Calif., USA). The gene expression was evaluated by means of PCR Real Time effected with a Rotor-gene TM5500 (Corbett research, Sydney, Australia). The PCR reactions were effected using primers at […] and SYBR Green (Invitroge, Carlsbad, Calif., USA) at 40 cycles of 15 s at 95° C., and 1 min. at 60° C. The value of “Fluorescence thresholds (Ct)” was automatically determined by the software, evaluating an amplification coefficient for the genes studied between 92 and 110%. […]"}, "IL-10": {"system": "IL-10", "assay": "Gene expression of IL-10 in human synoviocytes (PCR Real Time)", "assay_type": "cell-based", "settings": "3 days of treatment, FIG. 1: HAS1 0.5 mg/ml, HAS3 0.1 mg/ml, vs control treated with non-sulfated HA 200 KD", "procedure": "as §1"}, "[5]": {"system": "Cytomegalovirus (CMV: AD-169 and Davis strain)", "assay": "Inhibition of Cytomegalovirus plaque formation in HEL cells", "assay_type": "cell-based", "settings": "numbers only in FIG. 11", "procedure": "The activity of the samples tested was determined by evaluating the inhibition of the cytopathogenicity determined by Cytomegalovirus (CMV: AD-169 and Davis strain) using the previous protocol. The antiviral activity was tested vs HEL cells (pulmonary embryonic cells) and was expressed as the concentration required for inhibiting the number of plaques formed by the above virus by 50%."}, "[6]": {"system": "Herpes Simplex Virus-1 (HSV-1: KOS, F and McIntyre strain)", "assay": "Inhibition of viral cytopathogenicity in E6SM fibroblast cells, HSV-1", "assay_type": "cell-based", "settings": "2nd day of incubation, numbers only in FIG. 10"}, "IL-2": {"system": "IL-2", "assay": "Protein synthesis of IL-2 in human PBMC (SearchLight array)", "settings": "not stimulated or stimulated with LPS or PHA (10 μg/ml), 24 hours, FIG. 6: HAS1 0.1 mg/ml, HAS3 1 mg/ml, vs HA", "experimental": "as §2, §3, §4"}, "fibrin clot": {"target": "T1, fibrin clot (Homo sapiens, UniProt P02671+P02675+P02679)", "T1 sequence (P02671 20-644 isoform P02671-2 limits assumed)": "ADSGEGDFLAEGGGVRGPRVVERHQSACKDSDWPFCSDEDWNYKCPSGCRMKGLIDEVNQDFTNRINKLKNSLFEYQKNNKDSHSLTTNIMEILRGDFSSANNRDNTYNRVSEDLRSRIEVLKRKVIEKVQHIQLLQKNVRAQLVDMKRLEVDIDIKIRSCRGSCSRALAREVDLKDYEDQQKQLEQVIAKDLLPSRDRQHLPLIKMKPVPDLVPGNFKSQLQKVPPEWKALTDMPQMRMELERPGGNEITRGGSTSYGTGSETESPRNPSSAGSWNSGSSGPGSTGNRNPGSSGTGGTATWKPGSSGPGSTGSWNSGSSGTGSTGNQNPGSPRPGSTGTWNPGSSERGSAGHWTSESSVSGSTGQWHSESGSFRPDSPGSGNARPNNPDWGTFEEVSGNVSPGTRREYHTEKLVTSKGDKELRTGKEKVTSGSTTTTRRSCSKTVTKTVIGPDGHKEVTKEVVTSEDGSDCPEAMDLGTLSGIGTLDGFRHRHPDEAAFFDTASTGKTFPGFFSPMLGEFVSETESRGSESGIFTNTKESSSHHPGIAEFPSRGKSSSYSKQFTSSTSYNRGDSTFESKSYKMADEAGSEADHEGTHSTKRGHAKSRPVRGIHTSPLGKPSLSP", "T1 sequence (P02675 45-491 limits assumed)": "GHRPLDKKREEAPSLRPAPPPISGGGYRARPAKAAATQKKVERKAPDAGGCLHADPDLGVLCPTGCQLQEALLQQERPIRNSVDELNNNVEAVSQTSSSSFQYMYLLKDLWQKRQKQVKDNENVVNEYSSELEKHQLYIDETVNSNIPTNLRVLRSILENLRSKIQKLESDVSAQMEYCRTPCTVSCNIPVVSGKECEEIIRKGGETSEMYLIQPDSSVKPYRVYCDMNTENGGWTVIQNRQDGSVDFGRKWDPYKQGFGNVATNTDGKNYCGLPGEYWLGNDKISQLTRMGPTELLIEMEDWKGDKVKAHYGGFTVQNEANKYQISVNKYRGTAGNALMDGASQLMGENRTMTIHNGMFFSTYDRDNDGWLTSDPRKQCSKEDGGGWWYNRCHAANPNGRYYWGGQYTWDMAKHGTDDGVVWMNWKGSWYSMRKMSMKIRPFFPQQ", "T1 sequence (P02679 27-437 isoform P02679-2 limits assumed)": "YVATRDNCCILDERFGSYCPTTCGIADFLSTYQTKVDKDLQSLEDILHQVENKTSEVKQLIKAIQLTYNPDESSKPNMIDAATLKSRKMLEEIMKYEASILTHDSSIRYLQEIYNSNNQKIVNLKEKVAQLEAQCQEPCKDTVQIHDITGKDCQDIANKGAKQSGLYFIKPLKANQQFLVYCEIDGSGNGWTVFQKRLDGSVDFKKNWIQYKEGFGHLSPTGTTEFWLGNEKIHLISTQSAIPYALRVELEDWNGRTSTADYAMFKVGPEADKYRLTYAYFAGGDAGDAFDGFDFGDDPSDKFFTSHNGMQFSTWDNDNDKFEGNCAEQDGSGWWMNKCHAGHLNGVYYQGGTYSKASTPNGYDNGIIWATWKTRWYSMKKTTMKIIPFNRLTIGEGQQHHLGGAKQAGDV", "assay": "In vitro fibrinolytic activity: dissolution of fibrin clot in coagulated plasma (absorbance at 405 nm)", "assay_type": "biochemical", "settings": "37° C.", "procedure": "The evaluation of the fibrinolytic properties of the products subjected to the test was compared with the acknowledged fibrinolytic activity of the plasmin. In particular, the dissolution rate of the fibrin network and formation of soluble products of the fibrin degradation (FDP), was evaluated.\nIn order to test the fibrinolytic effectiveness of the products subjected to testing, the blood samples were distributed in various test-tubes in which the clot formation was induced.\nThe formation of FDP was then evaluated after the addition of:\nThe freshly removed blood samples were distributed in various test-tubes containing sodium citrate in a ratio of 9:1. The test-tubes were immediately centrifuged at 3,000 rpm for 5 minutes. The plasma obtained was transferred to a new test-tube and immediately used for effecting the FDP evaluation.\nThrombin (300 mU/ml), preheated to 37° C. was added to the plasma samples, as activator of the fibrinogen in inducing the formation of the clot.\nThe following were added to the different cuvettes containing the fibrin clot:\na plasmin solution 0.5 mU, 5 mU, 50 mU, 500 mU and 1 U\nsolutions of HAS3 at concentrations of 25 mg/ml, 50 mg/ml, 100 mg/ml, 150 mg/ml and 200 mg/ml.\nThe absorbance variation at 405 nm for 60 sec. was evaluated spectrophotometrically for each cuvette. The reaction was left to proceed until the complete dissolution of the clot.\nCoagulated plasma, plasmin solution and a solution of HAS3 200 KD and HAS3 20 KD were mixed in a ratio of 1:1 v/v and maintained at an operating temperature of 37° C."}}, "note": "Like-named read-outs stand apart in the source and are kept apart here.", "data": [{"molecule": "Nc1nc2c(ncn2COCCO)c(=O)[nH]1", "note": "[acyclovir, Acyclovir, reference compound]", "values": [{"measurement": "antiviral activity (inhibition of the cytopathogenicity of the virus) vs VSV", "setting": "[1]; E6SM cells, 2nd day of incubation, numbers only in FIG. 10", "result": "inactive"}]}, {"molecule": "sulfated hyaluronic acid degree 1 [HAS1]", "values": [{"measurement": "inhibition of the binding of TNF to its receptor", "setting": "TNF receptor", "result": 100, "unit": "%"}, {"measurement": "synthesis of IL-12", "setting": "IL-12 [2]", "result": "significantly reducing"}, {"measurement": "antiviral activity (inhibition of the cytopathogenicity of the virus) vs VSV", "setting": "[1]", "result": "very powerful antiviral activity"}, {"measurement": "synthesis of IL-7", "setting": "IL-7", "result": "significantly reducing"}, {"measurement": "antiviral activity (inhibition of the cytopathogenicity of the virus) vs HSV-2", "setting": "[3]", "result": "powerful antiviral action"}, {"measurement": "gene expression of IL-12 (synthesis of its mRNA)", "setting": "IL-12 [4]", "result": "halving the synthesis of its mRNA"}, {"measurement": "gene expression of the cytokine IL-10", "setting": "IL-10", "result": "significant increase"}, {"measurement": "antiviral activity vs Cytomegalovirus (inhibition of the number of plaques)", "setting": "[5]", "result": "clear and significant positive result"}, {"measurement": "antiviral activity (inhibition of the cytopathogenicity of the virus) vs HSV-1", "setting": "[6]", "result": "powerful antiviral action"}, {"measurement": "synthesis of IL-2", "setting": "IL-2", "result": "significantly reducing"}]}, {"molecule": "B1", "values": [{"measurement": "fibrinolytic activity (mAbs/min)", "setting": "fibrin clot; plasmin 0.5 mU", "result": 1, "unit": "mAbs/min"}, {"measurement": "fibrinolytic activity (mAbs/min)", "setting": "fibrin clot; plasmin 1 U", "result": 190, "unit": "mAbs/min"}, {"measurement": "fibrinolytic activity (mAbs/min)", "setting": "fibrin clot; plasmin 5 mU", "result": 68, "unit": "mAbs/min"}, {"measurement": "fibrinolytic activity (mAbs/min)", "setting": "fibrin clot; plasmin 50 mU", "result": 126, "unit": "mAbs/min"}, {"measurement": "fibrinolytic activity (mAbs/min)", "setting": "fibrin clot; plasmin 500 mU", "result": 178, "unit": "mAbs/min"}]}]}
